{
  "source": "patent US20190290729A1",
  "about": "“PHARMACEUTICAL ASSOCIATION OF GROWTH FACTOR RECEPTOR AGONIST AND ADHESION PROTEIN INHIBITOR FOR CONVERTING A NEOPLASTIC CELL INTO A NON-NEOPLASTIC CELL AND USES THEREOF” (HISTIDE AG, priority 2015, published 2019)",
  "system": "osteosarcoma cells",
  "experiment": "Immunofluorescence of cell adhesion and morphology on grafted polymer scaffolds (actin, vinculin, DAPI)",
  "format": "cell-based",
  "conditions": "polymer scaffold covalently modified with mixture of GFR-binding compound and RGD peptide, 24 hours of culture",
  "method": "FIG. 9 is (a) a representation of a Quantitative Real Time PCR analysis of the expression of DMP-1, SCT and RANK-L in neoplastic cells (osteosarcoma cells) cultured on a native polymer scaffold (control) and on a polymer scaffold grafted with a mixture comprising a GFR-binding compound as defined in the present disclosure and a RGD peptide, after 24 hours of culture, (b) immunofluorescence staining of a representative neoplastic cell (osteosarcoma cells) cultured on a polymer scaffold grafted with a mixture comprising a GFR-binding compound as defined in the present disclosure (ID SEQ NO: 2) and a RGD peptide, after 24 hours of culture. The actin filaments were immunostained by using Alexa 488-phalloidin. The focal adhesions were represented by immunostaining with anti-vinculin. The nucleus was stained with DAPI and is represented by a circle in the center of the cell. Scale bar: 5 μm. (c) is a diagram representing the grafting density of a radiolabeled GFR-binding compound as defined in the present disclosure covalently grafted on a polymer scaffold and of a radiolabeled GFR-binding compound and a non-labeled RGD peptide both grafted on a polymer scaffold. The measurements were performed by using radioactivity quantification (no significant difference was observed). […]",
  "note": "Where no end group is shown, it is not given here.",
  "data": [
    {"substance": "SEQ ID NO: 2: GFR-binding compound as defined in the present disclosure, grafted with a RGD peptide on a polymer scaffold (KVGKASSAPTKLSAISMLYLDDMGVPTLKNYQNMVVR; also: grafted with RGD peptide on polymer scaffold)", "values": [
      {"measurement": "morphology of neoplastic cells (immunofluorescence)", "value": "Spheroid-like structures of neoplastic cells become predominant"}
    ]}
  ]
}
